What was measured:
Format in all cases: in vivo, mouse
[1] = test system: STZ-induced diabetic mice (DBA background); assay: Renal histological changes, PAS staining, STZ-induced diabetic mice (DBA background)
Source text: Sections were stained with Periodic acid-Schiff (PAS) and all glomeruli were examined at 40×. Images were taken with 100× (oil) objective with a total magnification of 1000×. […] Adjacent tubular basement membranes stain PAS positive as well.
Kidneys from mice were fixed in 4% paraformaldehyde, embedded in paraffin, and 3-μm sections were cut. Sections were stained with Periodic acid-Schiff (PAS) stain and all glomeruli were examined at 40× (TKC) in a masked fashion. All images were obtained with an Olympus BX51 microscope and DP71 digital camera using MicroSuite Basic 2.6 imaging software. Images were taken with 100× (oil) objective with a total magnification of 1000×. Semiquantitative scores (0-4+) were assigned based on the masked reading, as previously described. Each glomerulus on a single section was graded from 0 to 4+, where 0 represents no lesion, and 1, 2, 3, and 4+ represent mesangial matrix expansion or sclerosis, involving […] of the glomerular tuft area, respectively.

[2] = test system: Ins2^Akita and their wild type littermate mice; assay: Blood urea nitrogen (BUN) in Ins2^Akita and wild type littermate mice; details: BEC 2.3 mg/kg/day 9 weeks, 14-week of age, mean ± SEM
Method: (§1) Experiments were conducted in male Ins2^Akita and their wild type (WT) littermate mice (DBA background; Jackson Laboratories) starting at 5 weeks of age until 14 weeks of age and were approved by the Pennsylvania State University College of Medicine Institutional Animal Care and Use Committee (PSU IACUC). The Ins2^Akita mice were recommended by the Animal Models of Diabetes Complications Consortium as an optimal model of diabetic nephropathy, and the mice developed hyperglycemia at 3 weeks of age. […]
(§2) BEC, a selective arginase antagonist (2.3 mg/kg/day, Cayman Chemical, Ann Arbor, Mich., USA), or vehicle (phosphate-buffered saline) was administered by continuous subcutaneous infusion for 9 weeks (in Ins2^Akita experiments) or for 6 wks (in STZ DBA mice experiments) via a mini-osmotic pump (Alzet; Durect Corporation, Palo Alto, Calif., USA) as described in CIRCULATION RESEARCH, 102(8):923-32, Apr. […] The condition of mice and body weight were monitored daily following the pump implantation.
(§3) Urinary albumin excretion (UAE) was measured by ELISA using Albuwell M (Exocell, Philadelphia, Pa.) as described previously. Blood urea nitrogen (BUN) was measured using (VITROS DT60II chemistry slides; Ortho-Clinical Diagnostics, Rochester, N.Y.). Body composition was determined using LF90 Minispec Time Domain Nuclear Magnetic Resonance Spectrometer (Bruker Optics, Billerica Mass.). […]

[3] = test system: arginase 2 mRNA; assay: Kidney arginase 2 mRNA expression by RT-PCR in Ins2^Akita mice; details: whole kidney RNA, Ins2^Akita mice at 14 weeks of age; normalized to GAPDH, relative to control; FIG. 5
Method: FIGS. 5A and 5B show the effect of arginase inhibition on arginase 2 mRNA expression in Ins2^Akita mice. Real-time polymerase chain reaction (RT-PCR) was performed on whole mouse kidney total RNA isolated at 14 weeks of age. […] In FIG. 5B, expression of arginase 2 mRNA was normalized to GAPDH and data were calculated as expression relative to control.
Total RNA was extracted from mouse kidneys using RNeasy Mini Kit (Qiagen, Gumbh, Hilden, Germany). Single-strand cDNA was synthesized using iScript cDNA Synthesis Kits (Bio-Rad, Hercules, Calif.) for two-step real-time polymerase chain reaction (RT-PCR). Gene-specific primers for ARG1 and ARG2 were designed using Beacon Designer Probe/Primer Design Software (Premier Biosoft International, Palo Alto, Calif.). Specificity of the PCR products was verified by melting curve analysis. Quantitative real-time PCR was performed using a Bio-Rad CFX96 system (Hercules, Calif.). Reactions were performed in duplicate, and threshold cycle numbers were averaged. Samples were calculated with normalization to GAPDH.
RT-PCR was performed on whole mouse kidney total RNA isolated at 14 weeks of age. […] In FIG. 5B, expression of arginase 2 mRNA was normalized to GAPDH and data were calculated as expression relative to control.

[4] = test system: Ins2^Akita mice; assay: 24-hr urinary albumin excretion (UAE) in Ins2^Akita mice; details: BEC 2.3 mg/kg/day 9 weeks, at 14 weeks of age, vs vehicle, FIG. 1
Method: The Ins2^Akita and their wild type (WT) littermate mice were treated with the arginase-specific inhibitor S-(2-Boronoethyl)-L-cysteine (BEC) (2.3 mg/kg/day) or vehicle via osmotic minipump for 9 weeks. Urine was collected for measurement of UAE before treatment (at 5 weeks of age) and after treatment (at 14 weeks of age). In FIG. 1, the open bars are vehicle treated groups and filled bars are arginase inhibitor treated groups. Data are presented as mean±SEM. […]
as §2, §3

[5] = test system: STZ-induced diabetic mice; assay: Glomerular macrophage recruitment, Mac-2 staining, STZ-induced diabetic mice; details: arginase inhibitor 6 weeks, p<0.0001 vs vehicle-treated diabetic
Method: as §1, §2
Immunohistochemistry for macrophages was performed in mice using rat anti-mouse Mac-2 monoclonal antibody; clone M3/38 (Cedarlane, Burlington, N.C., US) on paraffin sections. […] The number of glomerular macrophages were counted in twenty glomeruli per section (number of macrophages in glomeruli divided by the number of glomeruli) in blinded fashion under 40× magnification and averaged.

[6] = test system: eNOS deficient and their wild type (WT) littermate mice; assay: Urinary albumin excretion in STZ-diabetic eNOS deficient and wild type littermate mice; details: BEC 2.3 mg/kg/day s.c. infusion 6 weeks, FIG. 14
Method: Experiments were conducted using multiple low doses of STZ (50 mg/kg body weight for 5 days). Arginase inhibition using BEC (2.3 mg/kg/day) or vehicle was administered by continuous subcutaneous infusion for 6 weeks via a mini-osmotic pump. Data is shown for 6 weeks after STZ-induced diabetes.
Urinary albumin excretion (UAE) was measured by ELISA using Albuwell M (Exocell, Philadelphia, Pa.) as described previously. Blood urea nitrogen (BUN) was measured using (VITROS DT60II chemistry slides; Ortho-Clinical Diagnostics, Rochester, N.Y.). Body composition was determined using LF90 Minispec Time Domain Nuclear Magnetic Resonance Spectrometer (Bruker Optics, Billerica Mass.).
eNOS deficient mice are recommended by the Animal Models of Diabetes Complications Consortium (AMDCC) as an optimal model of diabetic nephropathy. Experiments were conducted in male 6-week-old eNOS deficient and their wild type (WT) littermate mice using multiple low doses of STZ (50 mg/kg body weight for 5 days). Arginase inhibition using BEC (2.3 mg/kg/day) or vehicle was administered by continuous subcutaneous infusion for 6 weeks via a mini-osmotic pump. Renal function was monitored throughout the study.

[7] = test system: Ins2^Akita and their wild type littermate mice; assay: Characteristics of Ins2^Akita and wild type littermate mice (glucose, body weight, kidney weight, body composition) with or without arginase inhibitor; details: BEC 2.3 mg/kg/day 9 weeks, 14-week of age, mean ± SEM
Method: Experiments were conducted in male Ins2^Akita and their wild type (WT) littermate mice (DBA background; Jackson Laboratories) starting at 5 weeks of age until 14 weeks of age and were approved by the Pennsylvania State University College of Medicine Institutional Animal Care and Use Committee (PSU IACUC). The Ins2^Akita mice were recommended by the Animal Models of Diabetes Complications Consortium as an optimal model of diabetic nephropathy, and the mice developed hyperglycemia at 3 weeks of age. Additional experiments were conducted in male 6-week-old mice (DBA background; Jackson Laboratories), arginase-2 (Arg2) wild type […] mice on C57B1/6 background weighing 20-22 g and were approved by the PSU IACUC. After an overnight fast, animals were given multiple low doses of vehicle or STZ (Sigma, St. Louis, Mo.; 50 mg/kg body wt dissolved in lactated Ringers solution) via intraperitoneal injection.
BEC, a selective arginase antagonist (2.3 mg/kg/day, Cayman Chemical, Ann Arbor, Mich., USA), or vehicle (phosphate-buffered saline) was administered by continuous subcutaneous infusion for 9 weeks (in Ins2^Akita experiments) or for 6 wks (in STZ DBA mice experiments) via a mini-osmotic pump (Alzet; Durect Corporation, Palo Alto, Calif., USA) as described in CIRCULATION RESEARCH, 102(8):923-32, Apr. 25, 2008. The osmotic pump was incubated in phosphate buffer saline (PBS) for 60-h at 37° C. prior to implantation and was implanted dorsally between shoulders. The condition of mice and body weight were monitored daily following the pump implantation.
as §3

[8] = test system: Ins2^Akita and their wild type littermate mice; assay: Glomerular macrophage recruitment, Mac-2 immunohistochemistry, Ins2^Akita experiment; details: 14 weeks of age
Method: FIGS. 2A-2D show the effect of arginase inhibition on macrophage recruitment in Ins2^Akita mice using immunohistochemistry.
Immunohistochemistry for macrophages was performed in mice using rat anti-mouse Mac-2 monoclonal antibody; clone M3/38 (Cedarlane, Burlington, N.C., US) on paraffin sections. Sections were incubated with primary antibody (50 μg/ml) followed by a biotinylated goat IgG anti-rat (Vector Laboratories, Burlingame, Calif.) secondary antibody according to the manufacturer's protocol. Sections were viewed using an Olympus BX51 microscope and DP71 digital camera using MicroSuite Basic 2.6 imaging software. Images were taken with 100× (oil) objective with a total magnification of 1000×. The number of glomerular macrophages were counted in twenty glomeruli per section (number of macrophages in glomeruli divided by the number of glomeruli) in blinded fashion under 40× magnification and averaged.
To determine whether arginases are critical for kidney macrophage infiltration in diabetic nephropathy, the distribution and quantitation of macrophages in kidneys by immunohistochemistry (Mac-2 positive macrophages) were analyzed. […]

[9] = test system: STZ-induced diabetic mice (DBA background); assay: 24-hr urinary albumin excretion in STZ-induced diabetic mice (DBA background); details: BEC 2.3 mg/kg/day 6 weeks, vs vehicle-treated diabetic, FIG. 6
Method: After an overnight fast, animals were given multiple low doses of vehicle or STZ (Sigma, St. Louis, Mo.; 50 mg/kg body wt dissolved in lactated Ringers solution) via IP injection. Mice were treated with the arginase-specific inhibitor BEC (2.3 mg/kg/day) or vehicle via osmotic minipump for 6 weeks. Urine was collected for measurement of UAE after 6 weeks. Data are presented as mean±SEM.
Experiments were conducted in male Ins2^Akita and their wild type (WT) littermate mice (DBA background; Jackson Laboratories) starting at 5 weeks of age until 14 weeks of age and were approved by the Pennsylvania State University College of Medicine Institutional Animal Care and Use Committee (PSU IACUC). […]
as §2
Urinary albumin excretion (UAE) was measured by ELISA using Albuwell M (Exocell, Philadelphia, Pa.) as described previously. […]

[10] = control (wild type littermate) mice

Question: With `N[C@@H](CSCCB(O)O)C(=O)O` [BEC, S-(2-Boronoethyl)-L-cysteine] as the compound, how does the “PAS positive material, share of the mesangial matrix” value ([1]; representative PAS section from arginase inhibitor treated STZ mouse, FIG. 7C) read?
Answer: The value was less than 25%.

Question: And the “glomerular changes (PAS, glomerular cellularity and mesangial expansion) score” value ([1]; semiquantitative score 0-4+, STZ-induced diabetic mice after 6 weeks, p<0.05 vs vehicle-treated STZ)?
Answer: Its value is 1.6±0.08.

Question: And the BUN ([2]; Ins2^Akita mice)?
Answer: Its BUN is 28 ± 3.

Question: And the BUN [2, 10]?
Answer: The BUN was 28 ± 3.

Question: And the “increase in arginase 2 mRNA expression” value [3]?
Answer: Its value is roughly 1.5 fold.

Question: What about the “Albuminuria (urinary albumin excretion)” value [4] of the same compound?
Answer: The value was “significantly reduced”.

Question: What about the “glomerular macrophage recruitment (Mac-2 staining)” value [5] of the same compound?
Answer: Its value is 1.2±0.06 macrophages/glomerulus.

Question: And the “albuminuria (UAE)” value ([6]; diabetic WT mice (STZ), vs vehicle)?
Answer: Its value is “significantly reduced”.

Question: And the UAE ([6]; diabetic eNOS deficient mice (STZ), vs vehicle treated diabetic mice)?
Answer: Its UAE is “failed to reduce”.

Question: What about the Kidney weight ([7]; Ins2^Akita mice) of the same compound?
Answer: Its Kidney weight is 269 ± 10 mg.

Question: And the “KW/BW (kidney weight to body weight ratio)” value [7, 10]?
Answer: The value was 8.1 ± 0.1 mg/g.

Question: And the Kidney weight [7, 10]?
Answer: The Kidney weight was 262 ± 4 mg.

Question: And the “glomerular macrophage recruitment (Mac-2 positive)” value ([8]; Ins2^Akita mice treated with arginase inhibitor, p<0.0001 vs vehicle-treated Ins2^Akita, FIG. 2D)?
Answer: Its value is 0.9±0.14 macrophages/glomerulus.

Question: And the “glomerular macrophage recruitment (Mac-2 positive)” value ([8]; control mice treated with arginase inhibitor, FIG. 2C)?
Answer: The value was 0.29±0.03 macrophages/glomerulus.

Question: And the “albuminuria (24-hr UAE)” value [9]?
Answer: The value was “significantly reduced”.
